In US7850981B2, “Immuno-adjuvant PDT treatment of metastatic tumors” (QLT, Inc., priority 1999, dated 2010):

What was measured:
[1] = tested on: Lewis Lung Carcinoma (LLC); test: In vitro lymphocyte proliferation assay (MTS) with lymph node cells of LLC-bearing mice treated with PDT or PDV; format: cell-based, C57B1/6 mice; conditions: mean±standard deviation; lymph nodes 7-10 days after therapy; cultured with LLC antigen; PDV n=7 (ConA responders)
Source text: In order to assess the potential usefulness of various adjuvants and treatment parameters in PDV, an in vitro lymphocyte proliferation assay was designed and employed in a murine tumor model. The assay measures tumour-specific lymphocyte (tumor immunity) responses from animals treated with PDT and PDT combined with adjuvant (PDV). This permits the rapid evaluation of various PDT/adjuvant administration protocols.
Female C57B1/6 mice are implanted subcutaneously on the shaved right flank with the Lewis Lung Carcinoma (LLC) cell line. When tumours develop to approximately 5 mm diameter animals are treated with PDT or PDV. PDT is performed by delivering 1.0 mg/kg verteporfin i.v. 30 min prior to illumination of 125 J/cm^2 delivered at 70 mW/cm^2 (treatment time=29 min, 4 sec). […] Animals are monitored for general health and re-growth of the tumour following therapy.
Seven to 10 days following therapy, animals are sacrificed and inguinal, axillary, cervical, and periaortic lymph nodes are aseptically removed. […] Following 3 to 5 days of culture, the degree of proliferation is assessed using 3-(4,5-dimethylthiazol-2-yl)-5-(3-carboxymethoxyphenyl)-2-(4-sulfophenyl)-2H-tetrazolium, inner salt (Owen's reagent, MTS, from PROMEGA™), a variation of the MTT assay which produces a soluble formazan product which absorbs light at 490 nm. […]

B16-F1 melanoma = test: B16-F1 melanoma: PDT (verteporfin 1.0 mg/kg i.v., 100 J/cm^2) with or without intratumoral TITERMAX, then experimental pulmonary metastases; format: in vivo, C57BL/6 mice
Protocol: Male, C57BL/6 mice were obtained from Charles River Canada (Montreal, QC) at 6 to 8 weeks of age. The B 16-F0 and B 16-F1 melanoma cell lines were obtained from the […] (ATC™) (Manassas, Va.) and grown as cell cultures in Dulbecco's Modified Eagle Medium (DMEM) (Gibco) supplemented with 10% fetal bovine serum (Sigma). The cells adhered to tissue culture plates, were removed for passage with 0.25% trypsin with 1.0 mM ethylenediaminetetraacetic acid (EDTA) (Gibco), and were cryo-preserved in liquid nitrogen in DMEM plus 40% FBS and 10% DMSO. Mice were injected with 5×10^5 tumor cells in a total volume of 50 μL subcutaneously into the shaved, right flank. The tumor size was monitored daily by measuring the diameter with vernier calipers and were treated when the tumors reached approximately 5 mm in diameter. […] Subsequently the B16-F1 cell line was used for all experiments.
PDT treatment of mice bearing the B16-F1 tumor was performed as previously described for the M1 rhabdomyosarcoma mouse tumor (Richter et al., 1987; Richter et al., 1988; Richter et al., 1991). Each mouse was weighed, warmed under infrared light for less than 5 min to dilate the blood vessels, restrained, and injected intravenously (tail vein) with verteporfin at a concentration of 1.0 mg/kg body weight using a 28G needle. […] Following treatment, animals were monitored daily for tumor response. […]

“benzoporphyrin derivative monoacid ring A [verteporfin]” was tested, and the “lymphocyte proliferation, percent of lymphocytes without antigen” value [1] was 108±11%, the “animals that required repeated treatment to complete the tumor cure” value (B16-F1 melanoma; of five animals per group, subcutaneous B16-F1 tumor) was 3 and the lung colonies (B16-F1 melanoma; one of the 5 animals treated with PDT alone, 14 days after i.v. tumor cells) was 6.
